Consider one compound from US5631401A, “Inhibitors of protein farnesyltransferase and squalene synthase” (Abbott Laboratories, priority 1995, dated 1997).

Assay [1] deals with T1, Rat liver microsomal squalene synthase (Rattus norvegicus, UniProt Q02769).
T1 construct: Rat liver microsomes, the source of enzyme, were prepared; from tissue; host or cells: rat liver microsomes
T1 sequence (Q02769 1-416): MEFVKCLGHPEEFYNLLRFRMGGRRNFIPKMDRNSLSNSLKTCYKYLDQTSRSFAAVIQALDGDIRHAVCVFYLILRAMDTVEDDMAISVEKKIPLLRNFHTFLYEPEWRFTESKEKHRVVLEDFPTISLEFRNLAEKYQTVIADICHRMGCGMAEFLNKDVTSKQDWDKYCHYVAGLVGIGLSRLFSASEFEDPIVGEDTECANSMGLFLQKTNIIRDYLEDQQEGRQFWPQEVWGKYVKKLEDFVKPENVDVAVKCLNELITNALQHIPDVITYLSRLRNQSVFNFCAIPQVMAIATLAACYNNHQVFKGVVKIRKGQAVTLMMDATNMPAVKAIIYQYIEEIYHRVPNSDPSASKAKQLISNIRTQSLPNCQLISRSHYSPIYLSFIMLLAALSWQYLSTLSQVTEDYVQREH
The assay can be described thus: In vitro inhibition of squalene synthase (rat liver microsomes, 3H-farnesyl diphosphate). In kind it is biochemical. The settings on record: 1 μM; compared to controls with no test compound.

Assay [2] addresses T2, Rat brain protein farnesyltransferase (Rattus norvegicus, UniProt Q02293+Q04631).
T2 construct: The enzyme was purified according to Reiss, Y., et al., Cell, 62: 81-88 (1990), utilizing steps one through three; from tissue; host or cells: rat brain
The assay can be described thus: In vitro inhibition of protein farnesyltransferase (biotin-lamin substrate, scintillation proximity assay). In kind it is biochemical. The following applies: 10 μM; compared to uninhibited control. An outline of the steps: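 Protein farnesyltransferase isolated from rat brain was purified following steps one through three of the Reiss et al. method, giving a specific activity of about 10 nmol substrate farnesylated/mg enzyme/hour. Activity was measured with a commercial Amersham scintillation proximity assay kit, using biotin-lamin as the acceptor substrate and radioactive farnesyl diphosphate as the donor.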

SMILES strings stand for the structures.

In the case of `O=C(O)[C@H]1[C@H](C(=O)N(Cc2ccc(F)cc2)Cc2ccc(Oc3ccccc3)cc2)[C@H](C(=O)O)[C@H]1C(=O)N(Cc1ccc(F)cc1)Cc1ccc(Oc2ccccc2)cc1` [Example 94, (1α,2β,3β,4α)-1,3-Di[N-(4-fluorobenzyl)-N-(4-phenoxybenzyl)aminocarbonyl]cyclobutane-2,4-dicarboxylic acid], testing at 1 µM in assay [1] gave an inhibition of 20%. In addition, the inhibition at 10 µM in assay [2] is 99%.
